Counter-ions that a name gives are not always drawn.
Key:
[1] = Antiproliferative activity against human MEpiC cells after 48 hrs by MTT assay; type: cell-based
MCF7 = assay: Antiproliferative activity against human MCF7 cells after 48 hrs by MTT assay; type: functional, cell-based; details: MCF7, 48 h
MDA-MB-231 = assay: Antiproliferative activity against human MDA-MB-231 cells after 48 hrs by MTT assay; type: functional, cell-based; details: MDA-MB-231, 48 h

| Compound | IC50 (MCF7) [µM] | IC50 (MDA-MB-231) [µM] | IC50 [1] [µM] |
| --- | --- | --- | --- |
| COc1cccc2c1C(=O)c1c(O)c3c(c(O)c1C2=O)C[C@@](O)(C(=O)CO)C[C@@H]3O[C@H]1C[C@H](N)[C@H](O)[C@H](C)O1 [DOXORUBICIN HYDROCHLORIDE] | – | 4.06 | – |
| O=C1C=CC2(C=C1)OC(=O)C(c1cc3ccccc3s1)=C2c1ccccc1 | 5.9 | 32.9 | 10.8 |
| O=C1C=CC2(C=C1)OC(=O)C(c1ccc3c(c1)OCO3)=C2c1ccccc1 | 5.81 | 9.12 | 34.2 |
| COc1cc(C2=C(c3ccccc3)C3(C=CC(=O)C=C3)OC2=O)cc(OC)c1OC | 5.79 | 9.73 | 6.61 |
| O=C1C=CC2(C=C1)OC(=O)C(c1cc3ccccc3o1)=C2c1ccccc1 | 5.8 | 21.2 | 66.5 |
| O=Cc1ccc(C2=C(c3ccccc3)C3(C=CC(=O)C=C3)OC2=O)s1 | 6.23 | 19.8 | 7.08 |
| COc1c(Br)cc(C)cc1C1=C(c2ccccc2)C2(C=CC(=O)C=C2)OC1=O | 5.85 | 9.45 | 14.7 |

The next lines start with results.

| IC50 (MCF7) [µM] | IC50 (MDA-MB-231) [µM] | Compound | IC50 [1] [µM] |
| --- | --- | --- | --- |
| 5.95 | 15.2 | O=C1C=CC2(C=C1)OC(=O)C(c1ccc(C(=O)O)cc1)=C2c1ccccc1 | 10.4 |
| 5.99 | 19 | O=C1C=CC2(C=C1)OC(=O)C(c1ccc([N+](=O)[O-])cc1)=C2c1ccccc1 | 66.5 |
| 6.32 | 38.6 | O=C1C=CC2(C=C1)OC(=O)C(c1ccc(F)cc1)=C2c1ccccc1 | 11.1 |
| 5.76 | 8.85 | O=C1C=CC2(C=C1)OC(=O)C(c1ccc(CO)cc1)=C2c1ccccc1 | 3.86 |
| 41.5 | 7.51 | O=C1C=CC2(C=C1)OC(=O)C(I)=C2c1ccccc1 | 6.33 |
| 6.46 | 15.9 | O=C1C=CC2(C=C1)OC(=O)C=C2c1ccccc1 | 7.67 |
| 6 | 61 | O=C1C=CC2(C=C1)OC(=O)C(c1ccc(O)cc1)=C2c1ccccc1 | 16.8 |
| 5.86 | 64 | COc1ccc(C2=C(c3ccccc3)C3(C=CC(=O)C=C3)OC2=O)cc1 | 11.7 |
| 5.73 | 10 | COc1ccc(F)cc1C1=C(c2ccccc2)C2(C=CC(=O)C=C2)OC1=O | 13.5 |
| 19 | 8.74 | N#Cc1ccc(C2=C(c3ccccc3)C3(C=CC(=O)C=C3)OC2=O)cc1 | 8.89 |
| 52.6 | 6.66 | COc1ccc(OC(=O)C#Cc2ccccc2)cc1 | 19.1 |

Reference: ChEMBL document CHEMBL3351974, “Development of constrained tamoxifen mimics and their antiproliferative properties against breast cancer cells” (Bioorg Med Chem Lett, 2015)
